Here are results for five compounds from publication PMC6291527, “A Nanostructured Lipid System to Improve the Oral Bioavailability of Ruthenium(II) Complexes for the Treatment of Infections Caused by Mycobacterium tuberculosis” (Frontiers in Microbiology, 2018).

The test system of assay [1] is mouse macrophages (J774A.1). The experiment in a line: In vitro cytotoxic activity (resazurin) in macrophages. The format is cell-based. As to conditions: complex solubilized in DMSO; J774A.1 macrophages, 24 h. As to the method: The cytotoxicity of the complexes solubilized in DMSO and loaded into the NLS was measured in mouse macrophages (J774A.1 ATCCb TIB-67) as described by [Pavan et al. (2010a)]. The cells were incubated at 37°C with 5% CO2 on plates with a surface area of 12.50 cm^2 in 10 ml RPMI (Vitrocell®, Campinas, SP, Brazil) supplemented with 10% fetal bovine serum, gentamicin sulfate (50 mg l^-1) and amphotericin B (2 mg l^-1). This technique consists of collecting the cells using a scraper, centrifuging (2000 rpm for 5 min), counting the number of cells in a Newbauer chamber, and then adjusting the concentration to 3.4 × 10^5 cells ml^-1 in RPMI. Next, 200 μl suspension was deposited into each well of a 96-well microplate and incubated at 37°C in an atmosphere of 5% CO2 for 24 h to allow the cells to attach to the plate. Dilutions of the test compounds were prepared to obtain concentrations from 500 to 1.95 μg ml^-1. […] The cytotoxicity of the compounds was determined by adding 30 μl developer of resazurin and read after a 6-h incubation. The reading was performed in a microplate Cytation 3 (Biotek®, Winooski, VT, United States) reader using excitation and emission filters at wavelengths of 530 and 590 nm, respectively. The cytotoxicity (IC50) was defined as the highest concentration of compound inhibiting the growth of at least 50% of the cells and was obtained from non-linear regression using GraphPad Prism 7.0 for Windows.
A general note: Resazurin is reduced to fluorescent resorufin, in cell work by metabolically active cells.

Assay [2] concerns M. tuberculosis H37Rv ATCC 27294. The experiment in a line: Resazurin Microtiter Assay (REMA), MIC90 against M. tuberculosis H37Rv. Conditions: for MIC90 DMSO: complex solubilized in DMSO, mean ± SD; for Standard MIC Pre-determined: repeats Table 2 values, mean ± SD of three assays.

Marks after values point to notes of the source that are not given here.

Turning to [Ru(pic)(dppb)(bipy)]PF6 [SCAR1], the “IC50 DMSO” value in assay [1] is reported as 22.26 ± 1.85^a μg mL^-1. In assay [2], the “MIC90 DMSO” value is 1.18 ± 0.08^a μg mL^-1 and the “Standard MIC Pre-determined” value stood at 1.18 ± 0.08 µg/mL.

With `F[P-](F)(F)(F)(F)F.O=C([O-])c1ccccn1.[Ru+2].c1ccc(P(CCP(c2ccccc2)c2ccccc2)c2ccccc2)cc1.c1ccc(P(CCP(c2ccccc2)c2ccccc2)c2ccccc2)cc1` [SCAR5, cis-[Ru(pic)(dppe)2]PF6], the “IC50 DMSO” value in assay [1] is given as 3.88 ± 0.98^a μg mL^-1. Moreover, in assay [2], the “MIC90 DMSO” value is 1.32 ± 0.03^a μg mL^-1 and the “Standard MIC Pre-determined” value is 1.32 ± 0.03 µg/mL.

Regarding [Ru(pic)(dppe)(phen)]PF6 [SCAR7], the “IC50 DMSO” value in assay [1] is reported as 14.36 ± 1.57^a μg mL^-1. Also, in assay [2], the “MIC90 DMSO” value is 0.98 ± 0.05^a μg mL^-1 and the “Standard MIC Pre-determined” value was 0.98 ± 0.05 µg/mL.

With `Cc1ccnc(-c2cc(C)ccn2)c1.F[P-](F)(F)(F)(F)F.O=C([O-])c1ccccn1.[Ru+2].c1ccc(P(CCCCP(c2ccccc2)c2ccccc2)c2ccccc2)cc1` [SCAR2, [Ru(pic)(dppb)(Me-bipy)]PF6], in assay [1], the “IC50 DMSO” value is 6.51 ± 0.67^a μg mL^-1. In assay [2], the “MIC90 DMSO” value is 1.08 ± 0.12^a μg mL^-1 and the “Standard MIC Pre-determined” value stood at 1.08 ± 0.12 µg/mL.

On to [Ru(pic)(dppb)(phen)]PF6 [SCAR4], for which the “IC50 DMSO” value in assay [1] is on record as 7.57 ± 0.13^a μg mL^-1. Besides, in assay [2], the “MIC90 DMSO” value is 1.34 ± 0.08^a μg mL^-1 and the “Standard MIC Pre-determined” value stood at 1.34 ± 0.08 µg/mL.
